Measured values from patent US10774097B2, “Boron compounds as inhibitors of lipoxygenase and the lipoxygenase pathway, and preparation and use thereof” (UNIVERSITÄT LEIPZIG, priority 2015, dated 2020).
Converted amounts (≈) assume the structure as drawn. Like-named read-outs stand apart in the source and are kept apart here.

What was measured:
[1] = test system: HCT116; test: Cytotoxicity crystal violet (CV) assay, HCT116; type: cell-based; settings: CV assay (bottom value)
Method: (§1) In order to determine the cytotoxicity towards various cancer cell lines, MTT and crystal violet (CV) assays were carried out. The MTT essay takes place as specified by T. Mosmann [T. Mosmann, J. Immunol. Methods, 1983, 65, 55], and the CV test takes place as specified by D. A. Flick et al. [D. A. Flick, G. E. Gifford, J. Immunol. Methods, 1984, 68, 167].
(§2) In these tests, the percentage of dead cells was analysed on the basis of the concentration of the inhibitors. The obtained IC50 value indicates the concentration of a particular inhibitor at which 50% of the analysed cells die off.
(§3) Meanwhile, in the crystal violet assay, the crystal violet dye can only diffuse through the perforated cell membranes of dead cells. In this case, the number of dyed cells represents the number of dead cells.
(§4) Three skin cancer cell lines (A375, B16, B16F10) and three colon cancer cell lines (CT26CL25, HCT116, SW480) were analysed. Primary fibroblasts from human lung tissue (MRC-5) were used as an example of healthy cells and thus as a negative control.
(§5) The top value for each cell represents the IC50 value in the MTT assay, and the bottom value represents the IC50 value in the CV assay (crystal violet).

[2] = test system: CT26CL25; test: Cytotoxicity MTT assay, CT26CL25; type: cell-based; settings: MTT assay (top value)
Method: as §1, §2
(§6) The proportion of living cells was determined by the MTT assay (3-(4,5-dimethylthiazolyl-2)-2,5-diphenyltetrazoliumbromide) and the crystal violet (CV) assay. In the MTT assay, the presence of NADH and NADPH is established. These two compounds are characteristic metabolism products in a functioning respiratory chain. NADH and NADPH reduce the MTT dye, thus leading to a change in colour, which can be measured and is thus directly proportional to the number of living cells.
as §4, §5

[3] = test system: SW480; test: Cytotoxicity MTT assay, SW480; type: cell-based; settings: MTT assay (top value)
Method: as §1, §2, §6, §4, §5

[4] = test system: SW480; test: Cytotoxicity crystal violet (CV) assay, SW480; type: cell-based; settings: CV assay (bottom value)
Method: as §1, §2, §3, §4, §5

[5] = test system: A375; test: Cytotoxicity crystal violet (CV) assay, A375; type: cell-based; settings: CV assay (bottom value)
Method: as §1, §2, §3, §4, §5

[6] = test system: primary fibroblasts (MRC-5); test: Cytotoxicity MTT assay, MRC-5; type: cell-based, human
Method: as §1, §2, §6, §4, §5

[7] = test system: HCT116; test: Cytotoxicity MTT assay, HCT116; type: cell-based; settings: MTT assay (top value)
Method: as §1, §2, §6, §4, §5

[8] = test system: A375; test: Cytotoxicity MTT assay, A375; type: cell-based
Method: as §1, §2, §6, §4, §5

[9] = test system: CT26CL25; test: Cytotoxicity crystal violet (CV) assay, CT26CL25; type: cell-based; settings: CV assay (bottom value)
Method: as §1, §2, §3, §4, §5

[10] = Solubility tests in ethanol and DMSO; type: physicochemical; settings: solvent added until clear solution; for solubility: organic solvent or mixture, thermodynamic from solid
Method: Solubility tests in ethanol and DMSO were carried out to determine the solubility. The amount of solvent required to obtain a clear solution was added to 4 mg of the compounds in an Eppendorf tube. The concentration of the solution was then determined on the basis of the mass of the compounds and the amount of solvent.

[11] = target: T1, 5-LOX (Homo sapiens, UniProt P09917); test: Inhibition test: 5-LOX activity in intact polymorphonuclear leukocytes (arachidonic acid conversion, HPLC); type: cell-based; settings: 5-LOX-FLAP enzyme system, 15 min at 37° C., read-out: IC50 value (at concentration)
T1 construct: endogenous in cells; host or cells: intact polymorphonuclear leukocytes isolated from blood
T1 sequence (P09917 1-674): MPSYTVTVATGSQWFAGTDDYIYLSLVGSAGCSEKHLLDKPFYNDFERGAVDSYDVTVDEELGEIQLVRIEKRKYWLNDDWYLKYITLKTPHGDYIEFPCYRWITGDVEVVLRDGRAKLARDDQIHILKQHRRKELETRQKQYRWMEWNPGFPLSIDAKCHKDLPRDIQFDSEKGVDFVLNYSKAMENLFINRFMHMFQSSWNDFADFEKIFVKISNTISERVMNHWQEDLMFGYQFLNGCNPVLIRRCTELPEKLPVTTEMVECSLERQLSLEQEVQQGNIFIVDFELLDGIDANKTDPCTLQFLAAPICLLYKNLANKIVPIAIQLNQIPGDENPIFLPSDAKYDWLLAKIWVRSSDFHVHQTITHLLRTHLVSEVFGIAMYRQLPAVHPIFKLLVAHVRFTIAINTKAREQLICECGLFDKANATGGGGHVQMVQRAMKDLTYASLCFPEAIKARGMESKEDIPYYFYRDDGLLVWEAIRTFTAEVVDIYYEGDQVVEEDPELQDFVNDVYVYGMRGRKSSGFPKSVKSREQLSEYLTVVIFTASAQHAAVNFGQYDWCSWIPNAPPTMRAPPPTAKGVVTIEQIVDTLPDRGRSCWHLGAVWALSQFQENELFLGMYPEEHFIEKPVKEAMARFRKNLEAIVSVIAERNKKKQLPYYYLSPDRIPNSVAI
Method: The 5-LOX activity of the cells was established on the basis of the concentration of inhibitor.
In this process, intact polymorphonuclear leukocytes were isolated from blood as specified in the known literature [C. Greiner et al., British Journal of Pharmacology, 2011, 164, 781-793]. The cells were grown on cell sheets until a confluence of 95% was reached, i.e. 95% of the cell sheets was covered with cells. Each cell sheet was then treated with 10 μl of a solution of the inhibitor at concentrations of 0.05 μM, 0.1 μM, 0.5 μM, 1 μM, 5 μM, 10 μM, 50 μM and 100 μM at 37° C. for 15 minutes. Each cell sheet was then treated with an arachidonic acid solution for 10 minutes. 10 μl of a 1:1 mixture of 2 mM of arachidonic acid and 250 μM of A23187 Ca^2+-ionophore solution in ethanol was used for this.
Conversion of a small amount of arachidonic acid is evidence of a strong inhibiting effect.

[12] = test system: B16; test: Cytotoxicity crystal violet (CV) assay, B16; type: cell-based; settings: CV assay (bottom value)
Method: as §1, §2, §3, §4, §5

[13] = test system: B16; test: Cytotoxicity MTT assay, B16; type: cell-based; settings: MTT assay (top value)
Method: as §1, §2, §6, §4, §5

[14] = test system: various cancer cell lines; test: Cytotoxicity tests on cancer cell lines (summary in words); settings: comparison with phenyl-based compounds
Method: as §1, §2, §4

[15] = MTT assay (top value), read-out: IC50 A375

1-(7-Thiomethylquinolin-2-yl-1,7-dicarba-closo-dodecaboran(12)yl)-hexan-1-ol [Embodiment 5]
IC50 [1]: > 50 µM | IC50 [2]: 46 µM | IC50 [3]: 33.1 µM | IC50 [4]: > 50 µM | IC50 [5]: 30.5 µM | selectiveness between healthy cells and cancer cells ([6]; IC50 for healthy cells (MRC-5) divided by IC50 for cancer cells (A375)): 10.2 | IC50 ([6]; read-out: IC50 value for healthy cells (MRC-5)): 82 µM | IC50 [7]: 45 µM | IC50 ([8]; read-out: IC50 value for A375 cancer cells): 8 µM | IC50 [9]: 50 µM | Solubility in DMSO ([10]; DMSO): 953.9 mM | Solubility in EtOH ([10]; ethanol): 238.5 mM | IC50 [11]: 2.5 µM | IC50 [12]: > 50 µM | IC50 [13]: 50 µM

1-((7-Quinolin-2-ylmethoxy)-1,7-dicarba-closo-dodecaboran(12)yl)-hexan-1-ol [Embodiment 3]
cytotoxicity towards cancer cell lines (in words) [14]: considerably higher cytotoxicity | Solubility in DMSO ([10]; DMSO): 208.3 mM | Solubility in EtOH ([10]; ethanol): 86.8 mM | IC50 [11]: 1.4 µM

1-(Quinolin-2-ylmethoxy)-1,7-dicarba-closo-dodecaborane(12) [Comparative Example 1]
IC50 [2]: > 50 µM | IC50 [3]: > 50 µM | IC50 [4]: > 50 µM | IC50 [5]: > 50 µM | cytotoxicity towards cancer cell lines (in words) [14]: insufficient cytotoxicity | IC50 [7]: > 50 µM | IC50 [8, 15]: 50 µM | IC50 [9]: > 50 µM | Solubility in DMSO ([10]; DMSO): 432 mM | Solubility in EtOH ([10]; ethanol): 72 mM | IC50 [11]: 2.3 µM | IC50 [12]: 47.6 µM | IC50 [13]: 47.4 µM

1-(Quinolin-2-ylmethyl)thio-1,7-dicarba-closo-dodecaborane(12) [Comparative Example 2]
IC50 [1]: > 50 µM | IC50 [2]: > 50 µM | IC50 [4]: > 50 µM | IC50 [5]: 34.8 µM | cytotoxicity towards cancer cell lines (in words) [14]: insufficient cytotoxicity | IC50 [7]: > 50 µM | IC50 [8, 15]: 30 µM | IC50 [9]: > 50 µM | Solubility in DMSO ([10]; DMSO): 600 mM | Solubility in EtOH ([10]; ethanol): 67 mM | IC50 [11]: 5.8 µM | IC50 [12]: > 50 µM | IC50 [13]: > 50 µM

1-Quinolin-2-ylmethoxy-1,12-dicarba-closo-dodecaborane(12) [Comparative Example 3]
IC50 [1]: > 50 µM | IC50 [2]: 35 µM | IC50 [3]: 29 µM | IC50 [5]: 26.9 µM | IC50 ([6]; single value in cell, unit inferred, top value = MTT assay, read-out: IC50 MRC-5): > 100 µM | IC50 [8, 15]: 8.8 µM | IC50 [9]: 50 µM | Solubility in DMSO ([10]; DMSO): 208.3 mM | Solubility in EtOH ([10]; ethanol): 86.8 mM | IC50 [11]: 1.4 µM | IC50 [12]: 46 µM | IC50 [13]: 45.7 µM

CCCCCC(O)c1cccc(OCc2ccc3ccccc3n2)c1 (stereo not drawn) [Rev-5901, reference compound]
IC50 ([1]; Homo sapiens, HCT-116): 50 µM | IC50 [2]: 28.1 µM | IC50 ([3]; Homo sapiens, SW480): 50 µM | IC50 ([4]; Homo sapiens, SW480): > 50 µM | IC50 ([5]; Homo sapiens, A-375): 46.5 µM | IC50 ([6]; Homo sapiens, MRC5, MTT assay (top value), healthy cells, read-out: IC50 MRC-5): 70.1 µM | IC50 ([6]; Homo sapiens, MRC5, read-out: IC50 value for healthy cells (MRC-5)): 70 µM | IC50 ([7]; Homo sapiens, HCT-116): 50 µM | IC50 ([8]; Homo sapiens, A-375, MTT assay (top value), read-out: IC50 A375): 25 µM | IC50 ([8]; Homo sapiens, A-375, depending on the method of analysis used (MTT/CV), read-out: IC50 values towards melanoma cancer cell line A375): 25 to 50 µM | IC50 [9]: > 50 µM | solubility ([10]; DMSO, read-out: Solubility in DMSO): 29.8 mM (≈ 10000 µg/mL) | solubility ([10]; ethanol, read-out: Solubility in EtOH): 29.7 mM (≈ 9960 µg/mL) | IC50 ([12]; Mus musculus, B16): 45 µM | IC50 ([13]; Mus musculus, B16): 27.6 µM
